The test system of the experiment is α7 integrin promoter. As to the kind of experiment: muscle cell-based assay: α7βgal+/− myoblasts/myotubes, LacZ reporter, β-galactosidase cleavage of FDG. Details: species or system mouse; Results in α7+/− β-galactosidase assay: scale not given here. The settings on record: Myoblasts. The procedure, abridged:
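Primary α7βgal+/− mouse myoblasts (LacZ knocked into α7 integrin exon 1, promoter retained), differentiated; promoter activity read as β-galactosidase conversion of non-fluorescent FDG to fluorescein. Hits followed by dose-response, western analysis and myostatin counterscreen.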

In the case of `Cc1cccc2c(/N=N/c3ccc(S(=O)(=O)Nc4ccc(Cl)cc4)cc3[N+](=O)[O-])c(O)[nH]c12` [drawing 605], the “Results in α7+/− β-galactosidase assay” value is, setting by setting: (0.5 uM) −0.02621; (1 uM) −0.05717; (5 uM) −0.2201; (10 uM) −0.3043; (20 uM) −0.4039; (40 uM) −0.5304.
Regarding `CC(C)c1ccc(OC(=O)c2cccc(S(=O)(=O)N3CCN(C)CC3)c2)cc1` [drawing 606], the “Results in α7+/− β-galactosidase assay” value is reported as −0.02855 (0.5 uM); −0.1053 (1 uM); 0.3741 (5 uM); −0.02381 (10 uM); 0.03734 (20 uM); −0.08446 (40 uM).
`CC(C)c1ccc(NC(=O)CN2C(=O)c3ccccc3S2(=O)=O)cc1` [drawing 607]: the “Results in α7+/− β-galactosidase assay” value by setting is: (0.5 uM) −0.1297; (1 uM) −0.1704; (5 uM) 0.367; (10 uM) −0.05458; (20 uM) −0.03658; (40 uM) −0.09806.
Take `NC(=O)c1sc2nc3c(cc2c1N)CCC3` [drawing 608]: the “Results in α7+/− β-galactosidase assay” value is, setting by setting: (0.5 uM) 0.003482; (1 uM) 0.04559; (5 uM) 0.02429; (10 uM) 0.07579; (20 uM) 0.3169; (40 uM) 0.4925.
For `O=C(Nc1ccccc1OC(=O)c1ccc(Cl)cc1)c1ccc(Cl)cc1` [drawing 609], the “Results in α7+/− β-galactosidase assay” value reads like this: (0.5 uM) 0.03104; (1 uM) 0.01493; (5 uM) −0.04769; (10 uM) −0.1879; (20 uM) 0.6323; (40 uM) −0.3765.
On to `CC(NC(=O)c1ccc(C(C)(C)C)cc1)C(c1cccs1)N1CCOCC1` (stereo not drawn) [drawing 610], for which the “Results in α7+/− β-galactosidase assay” value (0.5 uM) is reported as 0.08931; the “Results in α7+/− β-galactosidase assay” value (1 uM) was found to be 0.1802; the “Results in α7+/− β-galactosidase assay” value (5 uM) is on record as 0.07478; the “Results in α7+/− β-galactosidase assay” value (10 uM) was −0.02239; the “Results in α7+/− β-galactosidase assay” value (20 uM) is on record as −0.1131; the “Results in α7+/− β-galactosidase assay” value (40 uM) was −0.1382.
In the case of `CCC(=O)c1ccc(OCC(O)CN2CCOC(C)C2)cc1.O=C(O)C(=O)O` (stereo not drawn) [drawing 611], the “Results in α7+/− β-galactosidase assay” value is 0.222 (0.5 uM); 0.08832 (1 uM); −0.02345 (5 uM); −0.1332 (10 uM); 0.0354 (20 uM); 0.02206 (40 uM).
Take `CC1CCN(C(CNS(=O)(=O)c2ccccc2)c2ccccc2)CC1` (stereo not drawn) [drawing 612]: the “Results in α7+/− β-galactosidase assay” value (0.5 uM) is 0.05229; the “Results in α7+/− β-galactosidase assay” value (1 uM) is given as −0.05932; the “Results in α7+/− β-galactosidase assay” value (5 uM) is −0.02531; the “Results in α7+/− β-galactosidase assay” value (10 uM) is reported as −0.1141; the “Results in α7+/− β-galactosidase assay” value (20 uM) was −0.291; the “Results in α7+/− β-galactosidase assay” value (40 uM) was −0.3822.
Turning to `COC(=O)c1ccc(/N=N/c2ccccc2)cc1` [drawing 613], the “Results in α7+/− β-galactosidase assay” value (0.5 uM) was found to be 0.1047; the “Results in α7+/− β-galactosidase assay” value (1 uM) stood at 0.17; the “Results in α7+/− β-galactosidase assay” value (5 uM) is −0.07402; the “Results in α7+/− β-galactosidase assay” value (10 uM) is listed as −0.1217; the “Results in α7+/− β-galactosidase assay” value (20 uM) was −0.1237; the “Results in α7+/− β-galactosidase assay” value (40 uM) was −0.2361.
As to `CN(CCC1CCCCO1)C(=O)CCc1nnc(CCCCc2ccccc2)o1` (stereo not drawn) [drawing 615], the “Results in α7+/− β-galactosidase assay” value is −0.05982 (0.5 uM); −0.07538 (1 uM); −0.00182 (5 uM); −0.02349 (10 uM); 0.02509 (20 uM); −0.00588 (40 uM).
For the compound `c1ccc(-c2nn[nH]n2)nc1` [drawing 616], the “Results in α7+/− β-galactosidase assay” value is recorded as −0.1138 (0.5 uM); −0.161 (1 uM); 0.4758 (5 uM); −0.06661 (10 uM); 0.6134 (20 uM); −0.02456 (40 uM).
Regarding `O=C(N/N=C/c1c[nH]c2ccccc12)c1cc(Cl)ccc1O` [drawing 617], the “Results in α7+/− β-galactosidase assay” value is on record as −0.1174 (0.5 uM); −0.2374 (1 uM); 0.2235 (5 uM); −0.05174 (10 uM); −0.06378 (20 uM); −0.0655 (40 uM).
As for `O=C(O)C(Cc1ccc(O)cc1)N1C(=O)c2ccccc2C1=O` (stereo not drawn) [drawing 619], the “Results in α7+/− β-galactosidase assay” value (0.5 uM) is 0.1486; the “Results in α7+/− β-galactosidase assay” value (1 uM) was found to be 0.2007; the “Results in α7+/− β-galactosidase assay” value (5 uM) is on record as 0.1591; the “Results in α7+/− β-galactosidase assay” value (10 uM) is −0.04895; the “Results in α7+/− β-galactosidase assay” value (20 uM) was found to be 0.03548; the “Results in α7+/− β-galactosidase assay” value (40 uM) is 0.007087.
For the compound `CCN(CC)C(=O)c1sc2nc(-c3ccc(OC)cc3)cn2c1C` [drawing 620], the “Results in α7+/− β-galactosidase assay” value is −0.00349 (0.5 uM); −0.01981 (1 uM); −0.06604 (5 uM); −0.2175 (10 uM); −0.4369 (20 uM); −0.6089 (40 uM).
`Cc1ccsc1-c1nnc(S)n1C1CCCCC1` [drawing 621]: the “Results in α7+/− β-galactosidase assay” value (0.5 uM) came to 0.007736; the “Results in α7+/− β-galactosidase assay” value (1 uM) was 0.002953; the “Results in α7+/− β-galactosidase assay” value (5 uM) is recorded as 0.06001; the “Results in α7+/− β-galactosidase assay” value (10 uM) is given as −0.06828; the “Results in α7+/− β-galactosidase assay” value (20 uM) is recorded as −0.1538; the “Results in α7+/− β-galactosidase assay” value (40 uM) is listed as −0.1034.
As for `O=C(N[C@@H](Cc1c[nH]c2ccccc12)C(=O)O)C1CCN(S(=O)(=O)c2cccs2)CC1` [drawing 622], the “Results in α7+/− β-galactosidase assay” value reads like this: (0.5 uM) −0.07999; (1 uM) −0.01966; (5 uM) −0.1194; (10 uM) −0.09397; (20 uM) −0.02534; (40 uM) −0.04251.
As to `COC(=O)Cn1c(=O)c2c(nc3n2CC(C)CN3Cc2ccccc2)n(C)c1=O` (stereo not drawn) [drawing 623], the “Results in α7+/− β-galactosidase assay” value is, setting by setting: (0.5 uM) −0.176; (1 uM) −0.2606; (5 uM) −0.02637; (10 uM) −0.1756; (20 uM) −0.2725; (40 uM) −0.3826.
`CCOC(=O)c1cc(C(=O)OCC)c(SCc2ccccc2)nc1O` [drawing 624]: the “Results in α7+/− β-galactosidase assay” value is, setting by setting: (0.5 uM) −0.1519; (1 uM) −0.22; (5 uM) 0.001928; (10 uM) −0.1374; (20 uM) −0.174; (40 uM) −0.1694.
As to `Oc1nc2ccccc2nc1-c1c[nH]c2ccccc12` [drawing 625], the “Results in α7+/− β-galactosidase assay” value runs as follows: (0.5 uM) −0.1557; (1 uM) −0.2438; (5 uM) −0.1427; (10 uM) −0.1781; (20 uM) −0.49; (40 uM) −0.6715.
As for `O=C(Nc1cc(-c2nc3ccccc3s2)ccc1Cl)c1ccc2c(c1)OCO2` [drawing 626], the “Results in α7+/− β-galactosidase assay” value runs as follows: (0.5 uM) −0.04702; (1 uM) −0.1444; (5 uM) 0.02573; (10 uM) 0.1301; (20 uM) −0.1679; (40 uM) −0.4411.
On to `Cn1c(-c2ccccc2)cc2ccccc21` [drawing 627], for which the “Results in α7+/− β-galactosidase assay” value is on record as 0.02349 (0.5 uM); −0.0996 (1 uM); −0.05693 (5 uM); −0.02616 (10 uM); −0.2661 (20 uM); −0.4026 (40 uM).
On to `COc1ccc(C(=O)/C=C2\C(=O)Nc3ccccc32)cc1OC` [drawing 628], for which the “Results in α7+/− β-galactosidase assay” value runs as follows: (0.5 uM) 0.07545; (1 uM) −0.02919; (5 uM) 0.1241; (10 uM) 0.1545; (20 uM) −0.335; (40 uM) −0.4748.
With `CC(C(=O)Nc1ccc(C#N)cc1)N(C)CC(=O)Nc1cccc(F)c1` (stereo not drawn) [drawing 629], the “Results in α7+/− β-galactosidase assay” value (0.5 uM) is on record as −0.05058; the “Results in α7+/− β-galactosidase assay” value (1 uM) is on record as −0.1543; the “Results in α7+/− β-galactosidase assay” value (5 uM) was −0.4207; the “Results in α7+/− β-galactosidase assay” value (10 uM) is on record as −0.5078; the “Results in α7+/− β-galactosidase assay” value (20 uM) is listed as −0.8278; the “Results in α7+/− β-galactosidase assay” value (40 uM) is given as −0.7653.

The values above are taken from patent US10028992B2, “Methods of treating muscular dystrophy” (BOARD OF REGENTS OF THE NEVADA SYSTEM OF HIGHER EDUCATION …, priority 2012, dated 2018).
